14 compounds from patent US8748417B2, “Amino-pyrrolidine-azetidine diamides as monoacylglycerol lipase inhibitors” (Janssen Pharmaceutica, NV, priority 2010, dated 2014) can be followed below.

Positions count from the first letter of the chain named.

What all share (format): biochemical
Test [1] deals with T1, purified wild type MGL (wt-MGLL 6H-11-313) (Homo sapiens, UniProt Q99685).
T1 construct: purified wild type MGL (wt-MGLL 6H-11-313)
T1 sequence (Q99685 1-303): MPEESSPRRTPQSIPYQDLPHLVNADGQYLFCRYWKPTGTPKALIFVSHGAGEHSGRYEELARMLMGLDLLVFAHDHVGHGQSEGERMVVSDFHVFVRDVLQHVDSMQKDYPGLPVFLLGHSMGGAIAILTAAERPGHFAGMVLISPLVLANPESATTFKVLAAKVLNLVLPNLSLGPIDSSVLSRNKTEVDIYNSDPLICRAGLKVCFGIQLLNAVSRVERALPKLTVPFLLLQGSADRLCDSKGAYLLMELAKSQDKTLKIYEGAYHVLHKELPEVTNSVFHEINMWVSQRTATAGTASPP
Description: MGL enzyme activity assay (4MU-B cleavage), wild type MGL. The following applies: wild type MGL 5 nM, 4MU-B 10 μM, 37° C.; read-out: MGL wild type inh IC50. The procedure, abridged: (§1)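 Enzyme in 20 mM PIPES pH 7.0, 150 mM NaCl, 0.001% Tween 20 with 4MU-B at 10 μM final and MGL at 5 nM final; compounds 17 to 0.0003 μM final, enzyme added last. Fluorescence (ex 335/em 440 nm) followed at 37° C for 5 min; IC50 from fit of fractional activity versus inhibitor concentration.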

Test [2] deals with MGL (rat brain homogenate). Description: 2-AG accumulation assay in rat brain homogenate. The following applies: compound 1 μM, percent of vehicle 2-AG accumulation. Put shortly: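 Rat brain homogenate was incubated with compound for 15 min at 37° C., after which CaCl2 was added to a final concentration of 10 mM and incubation continued for 15 min at 37° C. in 5 mL total. Reactions were stopped with 6 mL of 2:1 chloroform/methanol, and 2-AG accumulated in the organic phase was quantified by HPLC/MS.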

In test [3] the target is T2, purified mutant MGL (mut-MGLL 11-313 L179S L186S) (Homo sapiens, UniProt Q99685, L169S/L176S).
T2 construct: purified mutant MGL (mut-MGLL 11-313 L179S L186S)
T2 sequence (Q99685 1-303 L169S/L176S): T1 sequence (Q99685 1-303) with L169S, L176S
The test can be described thus: MGL enzyme activity assay (4MU-B cleavage), mutant MGL. The following applies: mutant MGL 5 nM, 4MU-B 10 μM, 37° C.; read-out: MGL mutant inh IC50. Put shortly: as §1

A word on the IC50: it is the concentration at which inhibition is half-maximal. With `O=C(c1ccc(-c2cccc(Cl)c2)cc1)N1CC(N[C@H]2CCN(C(=O)c3ccccc3)C2)C1` [Cpd 29, (3S)-N-{1-[(3′-Chlorobiphenyl-4-yl)carbonyl]azetidin-3-yl}-1-(phenylcarbonyl)pyrrolidin-3-amine], the concentration for half-maximal inhibition (IC50) was found to be 0.0098 µM in test [1] and 0.011 µM in test [3]. Moreover, the “Rat Brain 2AG % VehCntrl (%) @1 μM” value in test [2] amounted to 163%.
Turning to `O=C(c1ccc(-c2ccc(Cl)c(Cl)c2)cc1)N1CC(N[C@H]2CCN(C(=O)c3ccccc3)C2)C1` [Cpd 30, (3S)-N-{1-[(3′,4′-Dichlorobiphenyl-4-yl)carbonyl]azetidin-3-yl}-1-(phenylcarbonyl)pyrrolidin-3-amine], the results for the half-inhibitory concentration (IC50) in test [1] and in test [3] were 0.007 µM and 0.0088 µM, respectively. Also, the “Rat Brain 2AG % VehCntrl (%) @1 μM” value in test [2] stood at 155%.
For the compound `O=C(c1ccccc1)N1CC[C@H](NC2CN(C(=O)c3sc4cc(-c5ccccc5)ccc4c3Cl)C2)C1` [Cpd 31, (3S)-N-{1-[(3-Chloro-6-phenyl-1-benzothiophen-2-yl)carbonyl]azetidin-3-yl}-1-(phenylcarbonyl)pyrrolidin-3-amine], the concentration for half-maximal inhibition (IC50) in test [1] is below 0.005 µM; in test [3] it was 0.005 µM. Besides, the “Rat Brain 2AG % VehCntrl (%) @1 μM” value in test [2] was determined as 323%.
For `O=C(c1ccccc1)N1CC[C@H](NC2CN(C(=O)c3sc4cc(-c5cccc(C(F)(F)F)c5)ccc4c3Cl)C2)C1` [Cpd 32, (3S)-N-[1-({3-Chloro-6-[3-(trifluoromethyl)phenyl]-1-benzothiophen-2-yl}carbonyl)azetidin-3-yl]-1-(phenylcarbonyl)pyrrolidin-3-amine], in that order: below 0.005 µM, below 0.005 µM and 524%.
In the case of `O=C(c1ccccc1)N1CC[C@H](NC2CN(C(=O)c3sc4cc(-c5ccc(C(F)(F)F)cc5)ccc4c3Cl)C2)C1` [Cpd 33, (3S)-N-[1-({3-Chloro-6-[4-(trifluoromethyl)phenyl]-1-benzothiophen-2-yl}carbonyl)azetidin-3-yl]-1-(phenylcarbonyl)pyrrolidin-3-amine], the half-inhibitory concentration (IC50) in test [1] and in test [3] was below 0.005 µM in each case. Besides, in test [2], the “Rat Brain 2AG % VehCntrl (%) @1 μM” value was 499%.
`Cc1c(C(=O)N2CC(N[C@H]3CCN(C(=O)c4ccccc4)C3)C2)sc2ccc(-c3cccc(C(F)(F)F)c3)cc12` [Cpd 41, (3S)-N-[1-({3-Methyl-5-[3-(trifluoromethyl)phenyl]-1-benzothiophen-2-yl}carbonyl)azetidin-3-yl]-1-(phenylcarbonyl)pyrrolidin-3-amine]: the 50% inhibitory concentration (IC50) in test [1] is below 0.005 µM; in test [3], 0.0063 µM. In addition, the “Rat Brain 2AG % VehCntrl (%) @1 μM” value in test [2] is listed as 1102%.
For `O=C(c1ccccc1)N1CC[C@H](NC2CN(C(=O)c3cc4ccc(-c5cccc(C(F)(F)F)c5)cc4s3)C2)C1` [Cpd 44, (3S)-1-(Phenylcarbonyl)-N-[1-({6-[3-(trifluoromethyl)phenyl]-1-benzothiophen-2-yl}carbonyl)azetidin-3-yl]pyrrolidin-3-amine], the concentration for half-maximal inhibition (IC50) came to 0.009 µM in test [1] and 0.0317 µM in test [3]. Further, the “Rat Brain 2AG % VehCntrl (%) @1 μM” value in test [2] worked out at 839%.
As for `CCN(C1CN(C(=O)c2ccc(-c3cccc(C(F)(F)F)c3)cc2)C1)[C@H]1CCN(C(=O)c2ccccc2)C1` [Cpd 53, (3S)-N-Ethyl-1-(phenylcarbonyl)-N-(1-{[3′-(trifluoromethyl)biphenyl-4-yl]carbonyl}azetidin-3-yl)pyrrolidin-3-amine], the half-inhibitory concentration (IC50) in test [1] was 0.286 µM; in test [3], 0.01 µM. Further, the “Rat Brain 2AG % VehCntrl (%) @1 μM” value in test [2] was found to be 164%.
On to `O=C(c1ccc(-c2cccc(C(F)(F)F)c2)cc1)N1CC(N(O)[C@H]2CCN(C(=O)c3ccccc3)C2)C1` [Cpd 54, (3S)-N-Hydroxy-1-(phenylcarbonyl)-N-(1-{[3′-(trifluoromethyl)biphenyl-4-yl]carbonyl}azetidin-3-yl)pyrrolidin-3-amine], for which the 50% inhibitory concentration (IC50) in test [1] was 0.0588 µM; in test [3], below 0.005 µM. For the same compound, the “Rat Brain 2AG % VehCntrl (%) @1 μM” value in test [2] was 242%.
For `O=C(c1ccccc1)N1CC[C@H](NC2CN(C(=O)c3sc4ccccc4c3Br)C2)C1` [Cpd 55, (3S)-N-{1-[(3-Bromo-1-benzothiophen-2-yl)carbonyl]azetidin-3-yl}-1-(phenylcarbonyl)pyrrolidin-3-amine] the same measures were 0.0202 µM, below 0.005 µM and 247%.
Regarding `O=C(c1ccccc1)N1CC[C@H](NC2CN(C(=O)c3sc4cc(F)ccc4c3Cl)C2)C1` [Cpd 56, (3S)-N-{1-[(3-Chloro-6-fluoro-1-benzothiophen-2-yl)carbonyl]azetidin-3-yl}-1-(phenylcarbonyl)pyrrolidin-3-amine], the IC50 in test [1] was 0.0684 µM; in test [3], below 0.005 µM. Also, the “Rat Brain 2AG % VehCntrl (%) @1 μM” value in test [2] is 222%.
On to `O=C(c1ccc2c(-c3ccccc3)c[nH]c2c1)N1CC(N[C@H]2CCN(C(=O)c3ccccc3)C2)C1` [Cpd 57, (3S)-1-(Phenylcarbonyl)-N-{1-[(3-phenyl-1H-indol-6-yl)carbonyl]azetidin-3-yl}pyrrolidin-3-amine], for which the half-maximal inhibitory concentration (IC50) in test [1] was determined as 0.179 µM; in test [3] it was 0.0443 µM. Also, the “Rat Brain 2AG % VehCntrl (%) @1 μM” value in test [2] worked out at 154%.
Consider `O=C(c1ccc(-c2cccc(C(F)(F)F)c2)cc1)N1CC(NC2CN(C(=O)c3ccccc3)CC2F)C1` (stereo not drawn) [Cpd 59, (3-((1-Benzoyl-4-fluoropyrrolidin-3-yl)amino)azetidin-1-yl)(3′-(trifluoromethyl)-[1,1′-biphenyl]-4-yl)methanone], for which the half-maximal inhibitory concentration (IC50) in test [1] was 0.0414 µM; in test [3], below 0.005 µM. Further, the “Rat Brain 2AG % VehCntrl (%) @1 μM” value in test [2] is 389%.
For `Cn1cc(-c2ccccc2)c2ccc(C(=O)N3CC(N[C@H]4CCN(C(=O)c5ccccc5)C4)C3)cc21` [Cpd 64, (3S)-N-{1-[(1-Methyl-3-phenyl-1H-indol-6-yl)carbonyl]azetidin-3-yl}-1-(phenylcarbonyl)pyrrolidin-3-amine], the half-maximal inhibitory concentration (IC50) was 0.0709 µM in test [1] and 0.0395 µM in test [3]. The “Rat Brain 2AG % VehCntrl (%) @1 μM” value in test [2] amounted to 182%.
